Laboratory results published in ChEMBL document CHEMBL2074504, “Inhibition of P-glycoprotein-mediated drug transport: A unifying mechanism to explain the interaction between digoxin and quinidine [seecomments]” (Circulation, 1999).

How the values were obtained:
[1] = target: T1, ATP-dependent translocase ABCB1 (Mus musculus, UniProt P21447); assay: TP_TRANSPORTER: increase in plasma concentration in mdr1a(-/-) mouse; assay type: functional, organism-based; settings: in vivo
[2] = target: T1, ATP-dependent translocase ABCB1; assay: TP_TRANSPORTER: increase in lung concentration in mdr1a(-/-) mouse; assay type: functional, organism-based; settings: in vivo
[3] = target: T1, ATP-dependent translocase ABCB1; assay: TP_TRANSPORTER: increase in brain concentration in mdr1a(-/-) mouse; assay type: functional, organism-based; settings: in vivo
[4] = target: T1, ATP-dependent translocase ABCB1; assay: TP_TRANSPORTER: increase in kidney concentration in mdr1a(-/-) mouse; assay type: functional, organism-based; settings: in vivo
[5] = target: T1, ATP-dependent translocase ABCB1; assay: TP_TRANSPORTER: increase in spleen concentration in mdr1a(-/-) mouse; assay type: functional, organism-based; settings: in vivo
[6] = target: T1, ATP-dependent translocase ABCB1; assay: TP_TRANSPORTER: increase in liver concentration in mdr1a(-/-) mouse; assay type: functional, organism-based; settings: in vivo
[7] = target: T1, ATP-dependent translocase ABCB1; assay: TP_TRANSPORTER: increase in small intestine concentration in mdr1a(-/-) mouse; assay type: functional, organism-based; settings: in vivo
[8] = target: ATP-dependent translocase ABCB1 (Homo sapiens, UniProt P08183); assay: TP_TRANSPORTER: transepithelial transport (basal to apical) in Caco-2 cells; assay type: functional, cell-based
Sequence of ATP-dependent translocase ABCB1 (Homo sapiens, UniProt P08183) (P08183 whole entry): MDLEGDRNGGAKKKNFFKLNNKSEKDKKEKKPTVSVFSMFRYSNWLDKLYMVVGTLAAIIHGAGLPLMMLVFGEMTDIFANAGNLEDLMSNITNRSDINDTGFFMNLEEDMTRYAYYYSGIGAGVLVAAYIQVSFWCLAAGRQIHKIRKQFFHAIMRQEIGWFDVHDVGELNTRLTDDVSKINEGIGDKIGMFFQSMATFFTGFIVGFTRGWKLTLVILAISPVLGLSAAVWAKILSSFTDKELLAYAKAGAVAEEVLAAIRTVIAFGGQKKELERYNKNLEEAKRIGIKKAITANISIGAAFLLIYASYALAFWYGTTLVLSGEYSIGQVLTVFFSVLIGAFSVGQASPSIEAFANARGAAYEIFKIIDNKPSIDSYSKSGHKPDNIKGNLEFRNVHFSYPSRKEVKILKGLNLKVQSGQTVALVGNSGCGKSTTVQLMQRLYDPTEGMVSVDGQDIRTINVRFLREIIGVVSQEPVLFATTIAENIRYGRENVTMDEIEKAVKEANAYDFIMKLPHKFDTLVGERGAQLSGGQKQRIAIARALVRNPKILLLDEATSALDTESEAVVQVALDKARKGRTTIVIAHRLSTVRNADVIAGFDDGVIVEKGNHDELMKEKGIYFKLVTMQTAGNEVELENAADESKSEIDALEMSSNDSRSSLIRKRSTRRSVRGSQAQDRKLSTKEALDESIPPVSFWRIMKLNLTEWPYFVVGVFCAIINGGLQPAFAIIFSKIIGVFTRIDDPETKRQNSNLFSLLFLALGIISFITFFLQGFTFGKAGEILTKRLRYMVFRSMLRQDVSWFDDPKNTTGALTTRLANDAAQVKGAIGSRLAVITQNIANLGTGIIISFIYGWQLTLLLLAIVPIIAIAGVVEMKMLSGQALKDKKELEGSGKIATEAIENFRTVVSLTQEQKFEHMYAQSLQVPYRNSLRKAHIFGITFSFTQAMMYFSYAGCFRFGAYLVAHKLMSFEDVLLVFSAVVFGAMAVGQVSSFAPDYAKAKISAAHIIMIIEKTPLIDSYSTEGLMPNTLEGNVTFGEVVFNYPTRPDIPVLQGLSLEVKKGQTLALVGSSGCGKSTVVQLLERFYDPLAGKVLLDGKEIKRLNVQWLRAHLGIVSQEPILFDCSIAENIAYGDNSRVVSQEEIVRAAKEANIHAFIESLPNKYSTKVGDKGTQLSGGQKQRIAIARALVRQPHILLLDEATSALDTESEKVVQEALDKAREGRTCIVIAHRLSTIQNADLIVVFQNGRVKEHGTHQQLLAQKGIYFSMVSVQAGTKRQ

T1 sequence (P21447 whole entry): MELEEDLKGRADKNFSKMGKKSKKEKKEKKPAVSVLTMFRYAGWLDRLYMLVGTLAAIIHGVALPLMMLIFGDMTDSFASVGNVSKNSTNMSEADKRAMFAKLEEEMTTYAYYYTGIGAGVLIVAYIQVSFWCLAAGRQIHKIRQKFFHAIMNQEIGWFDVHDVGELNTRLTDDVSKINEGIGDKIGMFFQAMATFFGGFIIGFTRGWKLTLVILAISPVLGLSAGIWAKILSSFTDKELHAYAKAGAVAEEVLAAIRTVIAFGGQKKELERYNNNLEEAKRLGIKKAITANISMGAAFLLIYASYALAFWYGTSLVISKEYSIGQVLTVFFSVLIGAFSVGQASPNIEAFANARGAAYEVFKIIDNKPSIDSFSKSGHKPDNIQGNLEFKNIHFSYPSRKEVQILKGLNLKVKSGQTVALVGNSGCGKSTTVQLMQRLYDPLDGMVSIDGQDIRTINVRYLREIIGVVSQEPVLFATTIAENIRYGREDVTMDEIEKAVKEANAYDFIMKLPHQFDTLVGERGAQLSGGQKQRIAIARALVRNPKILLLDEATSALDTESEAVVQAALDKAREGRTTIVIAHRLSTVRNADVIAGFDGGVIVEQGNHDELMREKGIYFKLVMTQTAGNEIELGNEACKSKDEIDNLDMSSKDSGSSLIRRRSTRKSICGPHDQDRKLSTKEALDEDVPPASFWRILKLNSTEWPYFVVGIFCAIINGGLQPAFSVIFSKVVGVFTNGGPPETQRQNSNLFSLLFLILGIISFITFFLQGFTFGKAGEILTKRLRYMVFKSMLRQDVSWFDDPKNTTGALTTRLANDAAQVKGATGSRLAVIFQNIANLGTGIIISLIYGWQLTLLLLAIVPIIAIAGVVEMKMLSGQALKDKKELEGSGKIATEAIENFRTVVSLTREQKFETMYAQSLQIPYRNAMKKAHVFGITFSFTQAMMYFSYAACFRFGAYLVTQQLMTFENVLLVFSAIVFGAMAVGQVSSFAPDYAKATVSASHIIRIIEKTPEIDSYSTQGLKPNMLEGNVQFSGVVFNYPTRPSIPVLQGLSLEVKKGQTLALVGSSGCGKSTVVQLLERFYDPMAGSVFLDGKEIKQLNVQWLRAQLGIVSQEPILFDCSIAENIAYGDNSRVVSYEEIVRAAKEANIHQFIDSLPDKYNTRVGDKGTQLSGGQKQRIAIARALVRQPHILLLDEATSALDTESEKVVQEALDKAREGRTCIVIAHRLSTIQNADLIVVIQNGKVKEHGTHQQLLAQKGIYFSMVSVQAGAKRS

Activity [1] | Activity [2] | Activity [3] | Activity [4] | Activity [5] | Activity [6] | Activity [7] | Activity [8] | SMILES
substrate [+] | substrate [+] | substrate [+] | substrate [+] | substrate [+] | substrate [+] | substrate [+] | – | C=C[C@H]1C[N@@]2CC[C@H]1C[C@@H]2[C@@H](O)c1ccnc2ccc(OC)cc12 [QUINIDINE]
– | – | – | – | – | – | – | substrate [+] | C[C@H]1O[C@@H](O[C@H]2[C@@H](O)C[C@H](O[C@H]3[C@@H](O)C[C@H](O[C@H]4CC[C@@]5(C)[C@H](CC[C@@H]6[C@@H]5C[C@@H](O)[C@]5(C)[C@@H](C7=CC(=O)OC7)CC[C@]65O)C4)O[C@@H]3C)O[C@@H]2C)C[C@H](O)[C@@H]1O [DIGOXIN]
